Measurements published in ChEMBL document CHEMBL1201862, “PubChem BioAssay data set” (2004).
Activity calls are given as the source filed them.

Legend:
HeLa = assay: HeLa cell cytotoxicity, dose response, cytotoxicity control for MITF activator project, CellTiter-Glo luminescence, cherry-pick samples (AID 540259); assay type: functional, cell-based; conditions: Homo sapiens
H4 = assay: Luminescence Cell-Based Dose Response HTS to Identify Activators of 5'UTR Stem-Loop Driven Prion Protein mRNA Translation in H4 Neuroglioblastoma Cells. [Related pubchem assays: 1829 (Project Summary), 1814 (Primary HTS)]; assay type: functional; conditions: Homo sapiens
[1] = Luminescence Cell-Based Dose Response HTS to Identify Activators of Luciferase Translation or Activity in H4 […] Cells. [Related pubchem assays: 1829 (Project Summary), 1814 (Primary HTS)]; assay type: functional
[2] = target: T1, Carboxy-terminal domain RNA polymerase II polypeptide A small phosphatase 1 (Homo sapiens, UniProt Q9GZU7); assay: inhibitors of CTDSP1, concentration-response testing, biochemical assay, absorbance-based, actives from ultra-high-throughput screening (AID 540297); assay type: functional
T1 sequence (Q9GZU7 whole entry): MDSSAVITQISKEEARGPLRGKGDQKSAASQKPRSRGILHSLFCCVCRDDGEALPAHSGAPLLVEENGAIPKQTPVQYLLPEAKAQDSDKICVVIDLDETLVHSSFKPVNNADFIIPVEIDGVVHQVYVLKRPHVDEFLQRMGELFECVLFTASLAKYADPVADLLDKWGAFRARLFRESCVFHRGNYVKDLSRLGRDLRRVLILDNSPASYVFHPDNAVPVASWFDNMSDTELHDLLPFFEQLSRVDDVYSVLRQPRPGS

[3] = intracellular Trypanosoma cruzi inhibitors in host cells – cell-based, plate reader, cherry-pick samples, set 3, dose response (AID 651818); assay type: functional;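 further: compounds incubated with infected cells for about four days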
[4] = cytotoxicity in HEK-293T cells, dose response, cytotoxicity control for BCR NF-kB inhibitor project, luminescence, B-cell screen hits (AID 489021); assay type: functional, cell-based;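 further: HEK-293T cells carrying an NF-kB luciferase reporter; cells exposed to compound for about 14 hours before viability readout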
[5] = THP-1 cell cytotoxicity, dose response, cytotoxicity control for Vif-APOBEC3G degradation inhibitor project, THP-1 cells (AID 1117359); assay type: functional; conditions: Human immunodeficiency virus 1, THP-1
[6] = target: Induced myeloid leukemia cell differentiation protein Mcl-1 (Homo sapiens, UniProt Q07820); assay type: functional
[7] = inhibitors of clade B AD8 Env fusion, dose response, cell-based, cherry-pick (AID 652062); assay type: functional;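 further: luciferase signal from cell-cell fusion driven by HIV-1 clade B AD8 Env; potency is for inhibitors of fusion seen as a drop in luminescence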
[8] = inhibitors of HIV Env-driven cell fusion, dose response, cherry-pick (AID 652057); assay type: functional, cell-based
[9] = off-target signal loss in HeLa-CEM21 co-culture – HeLa F-luc CTL cells, cherry-picked, counter-screen for HIV-1 Env fusion inhibitor project, dose response (AID 652040); assay type: functional, cell-based;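 further: potency for signal decrease marking cytotoxic or nonspecific inhibition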
[10] = target: Dual specificity tyrosine-phosphorylation-regulated kinase 1A (Rattus norvegicus, UniProt Q63470); assay type: biochemical, Homo sapiens
[11] = NIH-3T3 fibroblast cytotoxicity, dose response, cytotoxicity control, cell-based, fluorescence, Alamar Blue, secondary assay (AID 2327); assay type: functional;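 further: NIH-3T3 mouse fibroblasts cultured with fluconazole at 8 µg/mL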
[12] = C. albicans growth with fluconazole, confirmation, fluorescence, retest (AID 2467); assay type: functional, cell-based
INS1 = assay: beta cell apoptosis inhibitors, cytokine rescue, dose response, luminescence, retest (AID 449756); assay type: functional, cell-based; conditions: Rattus norvegicus;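 further: cell death triggered by IL-1 beta plus TNF-alpha plus IFN-gamma mixture; protective hits raise ATP signal compared with cytokine alone wells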
[13] = Luminescence Cell-Based Dose Retest to Confirm Inhibitors of Cancer Stem Cells. [Related pubchem assays (depositor defined):AID2717, AID2721]; assay type: functional; conditions: Homo sapiens
Escherichia coli = assay: microbe, parasite or virus in culture
[14] = Fluorescence-based cell-based high throughput dose response assay for inhibitors of the interaction of nucleotide-binding oligomerization domain containing 2 (NOD2) and the receptor-interacting serine-threonine kinase 2 (RIPK2).; assay type: functional; conditions: Homo sapiens

Chain of Induced myeloid leukemia cell differentiation protein Mcl-1 (Q07820 whole entry, the tested form may be a part): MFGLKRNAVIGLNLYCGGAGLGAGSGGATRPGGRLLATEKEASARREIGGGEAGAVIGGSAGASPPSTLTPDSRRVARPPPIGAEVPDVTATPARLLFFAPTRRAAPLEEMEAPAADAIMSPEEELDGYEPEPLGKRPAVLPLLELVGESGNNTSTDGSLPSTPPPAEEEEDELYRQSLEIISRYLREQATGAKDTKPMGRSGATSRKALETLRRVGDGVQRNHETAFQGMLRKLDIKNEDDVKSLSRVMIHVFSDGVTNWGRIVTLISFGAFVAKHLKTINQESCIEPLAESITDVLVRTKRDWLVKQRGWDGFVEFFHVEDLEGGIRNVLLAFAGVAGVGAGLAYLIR

Compound: COc1ccc(-c2nnn(Cc3ccccc3F)n2)cc1
- AC50 (HeLa): 60.2 µM (active)
- EC50 (H4): 44.6 µM (inconclusive)
- EC50 [1]: 1.75 µM (active)

Compound: CCOC(=O)C1(C)C(C(=O)OC)=C(c2ccc(OC)cc2)c2ccccc2N1C(=O)OC (stereo not given)
- IC50 [2]: 29.5 µM (active)

Compound: C[C@@H]1CN([C@H](C)CO)C(=O)c2cccc(NC(=O)c3cnccn3)c2O[C@@H]1CN(C)Cc1ccc(C(=O)Nc2ccccc2N)cc1
- AC50 [3]: 3.06 µM (active)

Compound: CCOc1ccc(/C=C2\SC(=S)N(CCC(=O)Nc3cccc(C(=O)O)c3)C2=O)cc1
- IC50 [4]: > 80 µM (inactive)
- IC50 [2]: 3.77 µM (active)

Compound: CC(=O)c1ccc(NC(=O)CSc2nnc(-c3ccco3)c(-c3ccco3)n2)cc1
- CC50 [5]: > 40 µM (active)
- IC50 [6]: 8.94 µM (active)
- IC50 [2]: 3.88 µM (active)

Compound: C[C@@H]1CCCCO[C@@H](CN(C)Cc2ccc(C(=O)Nc3ccccc3N)cc2)[C@@H](C)CN([C@H](C)CO)C(=O)c2cc(NC(=O)Nc3ccc(C(F)(F)F)cc3)ccc2O1
- AC50 [3]: 0.554 µM (active)

Compound: Cc1noc(C)c1S(=O)(=O)N(C)C[C@@H]1Oc2ccc(NC(=O)Cc3ccccc3)cc2CC(=O)N([C@H](C)CO)C[C@@H]1C
- AC50 [7]: 2.92 µM (active)
- AC50 [8]: < 0.26 µM (active)

Compound: O=C1c2cccc(OCc3ccc(F)cc3)c2CCN1Cc1ccccc1
- AC50 [7]: 10.1 µM (active)
- AC50 [9]: 4.11 µM (active)

Compound: Nc1nn2c(O)cc(-c3ccccc3)nc2c1N=Nc1ccc(S(N)(=O)=O)cc1
- AC50 [10]: 1.3 µM (active)
- EC50 [11]: > 160 µM (inactive)
- EC50 [12]: > 38 µM (not active)

Compound: CCCCNc1c(-c2ccc(-c3cccc(Cl)c3)cc2)nc2ccccn12
- AC50 (HeLa): 32.4 µM (active)
- AC50 (INS1): 6.04 µM (active)
- AC50 [13]: 3.86 µM (active)

Compound: C[C@H]1CN([C@@H](C)CO)C(=O)Cc2cc(NS(=O)(=O)c3ccc(Cl)cc3)ccc2O[C@H]1CN(C)CC1CCCCC1
- AC50 [3]: 5.05 µM (active)

Compound: COc1cc(/C=C(\C#N)c2nn(CCO)c(N)c2C#N)cc(OC)c1OC
- AC50 (Escherichia coli): 29 µM (active)

Compound: CCC(=O)Nc1ccc(C(=O)Cn2ncc(Cl)c(Cl)c2=O)cc1
- AC50 [13]: 5.04 µM (active)
- IC50 [14]: 6.53 µM (active)
